Assay results taken from patent publication US20240391871A1, “SUBSTITUTED HYDROXYMETHYL PYRROLIDINES AND MEDICAL USES THEREOF” (ATROGI AB, priority 2021, published 2024).
Structures can show the parent of a compound that is named as a salt.

How the values were obtained:
[1] = tested on: Intracellular cAMP levels; experiment: Measurement of intracellular cAMP levels in differentiated L6 cells; type: cell-based; details: compound 1×10^−5 M, 15 min; for Emax at 10 µM: Rattus norvegicus, L6, 0.25 h, read-out: Biological example 2: intracellular cAMP levels, activity compared to that of isoproterenol
Procedure: (§1) L6-myoblasts were grown in Dulbecco's Modified Eagle's Medium (DMEM) containing 1 g/L glucose supplemented with 10% fetal bovine serum, 2 mM L-Glutamine, 50 U/mL penicillin, 50 μg/mL streptomycin and 10 mM HEPES. Cells were plated at 1×10^5 cells per mL in 24-well plates. After reaching 90% confluence the cells were grown in medium containing 2% FBS for 7 days where upon cells differentiated into myotubes.
Differentiated cells were serum-starved overnight and stimulated with an agonist, final concentration 1×10^−5 M, for 15 min in stimulation buffer (HBSS supplemented with 1% BSA, 5 mM HEPES and 1 mM IBMX, pH 7.4). The medium was aspirated and 100 μL of 95% EtOH was added to each well of the 24-well plate and cells were kept at −20° C. overnight. The EtOH was allowed to evaporate and 500 μL of lysis buffer (1% BSA, 5 mM HEPES and 0.3% Tween-20, pH 7.4) was added to each well. The plate was kept at −80° C. for 30 min and then at −20° C. until the day of detection when the samples were thawed. Intracellular cAMP levels were detected using an alpha screen cAMP kit (6760635D from Perkin Elmer). The activity for each compound is compared to that of isoproterenol.

L6-myotubes = experiment: Glucose uptake (3H-2-deoxyglucose) in differentiated L6-myotubes; type: cell-based; details: compound 1×10^−5 M; for Emax at 10 µM: read-out: Biological example 1: glucose uptake, activity compared to that of isoproterenol
Procedure: as §1
Differentiated L6-myotubes were serum-starved overnight in medium containing 0.5% fatty-acid free BSA and stimulated with an agonist, with a final concentration of 1×10^−5 M. After 1 h 40 min the cells were washed with warm glucose free medium or PBS twice and another portion of agonist was added to the glucose free medium. After 20 min the cells were exposed to 50 nM ^3H-2-deoxyglucose for 10 min before washed with ice cold glucose free medium or PBS three times and lysed with 0.2 M NaOH, 400 μL/well, for 1 h at 60° C. The cell lysate was mixed with 4 mL scintillation buffer (Emulsifier Safe, Perkin Elmer) and the radioactivity was detected in a β-counter (Tri-Carb 4810TR, Perkin Elmer). The activity for each compound is compared to that of isoproterenol.

| Structure (SMILES) | Biological example 2: intracellular cAMP levels, activity compared to that of isoproterenol [1] | Biological example 1: glucose uptake, activity compared to that of isoproterenol (L6-myotubes) | Emax at 10 µM [1] [%] | Emax at 10 µM (L6-myotubes) [%] |
| --- | --- | --- | --- | --- |
| CO[C@H]1CC[C@H](C[C@H]2CC[C@H]([C@@H](O)c3cccc(F)c3)N2)CC1.Cl [Example 4, (S)-(3-Fluorophenyl)((2R,5R)-5-(((1r,4R)-4-methoxycyclohexyl)-methyl) -pyrrolidin-2-yl)methanol hydrochloride] | − (less than 25%) | + (between 50 and 25%) |  |  |
| CO[C@H]1CC[C@H](C[C@@H]2CC[C@H]([C@H](O)c3ccccc3F)N2)CC1.Cl [Example 5, (R)-(2-Fluorophenyl)((2R,5S)-5-(((1r,4S)-4-methoxycyclohexyl)methyl-(pyrrolidin-2-yl)methanol hydrochloride] |  |  | < 25 | > 75 |
| CO[C@H]1CC[C@H](C[C@@H]2CC[C@H]([C@@H](O)c3ccccc3F)N2)CC1 [Example 6, (S)-(2-Fluorophenyl)((2R,5S)-5-(((1r,4S)-4-methoxycyclohexyl)methyl) -pyrrolidin-2-yl)methanol hydrochloride] |  |  | < 25 | 25 to 50 |
| CO[C@H]1CC[C@H](C[C@H]2CC[C@H]([C@@H](O)c3ccccc3F)N2)CC1 [Example 8, (S)-(2-Fluorophenyl)((2R,5R)-5-(((1r,4S)-4-methoxycyclohexyl)methyl) -pyrrolidin-2-yl)methanol hydrochloride] |  |  | < 25 | 50 to 75 |
| CO[C@H]1CC[C@H](C[C@@H]2CC[C@H]([C@H](O)c3cncc(F)c3)N2)CC1 [Example 9, (R)-(5-Fluoropyridin-3-yl)(2R,5S)-5-(((1r,4S)-4-methoxycyclohexyl)methyl) -pyrrolidin-2-yl)methanol dihydrochloride] |  |  | < 25 | 25 to 50 |
| CO[C@H]1CC[C@H](C[C@@H]2CC[C@H]([C@@H](O)c3cncc(F)c3)N2)CC1 [Example 10, (S)-(5-Fluoropyridin-3-yl)((2R,5S)-5-(((1r,4S)-4-methoxycyclohexyl) -methyl)pyrrolidin-2-yl)methanol dihydrochloride] |  |  | < 25 | 25 to 50 |
| CO[C@H]1CC[C@H](C[C@H]2CC[C@H]([C@H](O)c3cncc(F)c3)N2)CC1 [Example 11, (R)-(5-Fluoropyridin-3-yl)((2R,5R)-5-(((1r,4S)-4-methoxycyclohexyl) -methyl)pyrrolidin-2-yl)methanol dihydrochloride] |  |  | < 25 | > 75 |
| CO[C@H]1CC[C@H](C[C@H]2CC[C@H]([C@@H](O)c3cncc(F)c3)N2)CC1 [Example 12, (S)-(5-Fluoropyridin-3-yl)(2R,5R)-5-(((1r,4S)-4-methoxycyclohexyl) -methyl)pyrrolidin-2-yl)methanol dihydrochloride] |  |  | < 25 | 25 to 50 |
| COc1ccc(C[C@@H]2CC[C@H]([C@H](O)c3cccc(F)c3)N2)cc1 [Example 13, (R)-(3-Fluorophenyl)((2R,5S)-5-(4-methoxybenzyl)pyrrolidin-2-yl)methanol] |  |  | < 25 | > 75 |
| COc1ccc(C[C@@H]2CC[C@H]([C@@H](O)c3cccc(F)c3)N2)cc1 [Example 14, (S)-(3-Fluorophenyl)((2R,5S)-5-(4-methoxybenzyl)pyrrolidin-2-yl)methanol hydrochloride] |  |  | < 25 | > 75 |
| COc1ccc(C[C@H]2CC[C@H]([C@H](O)c3cccc(F)c3)N2)cc1 [Example 15, (R)-(3-Fluorophenyl)((2R,5R)-5-(4-methoxybenzyl)pyrrolidin-2-yl)methanol] |  |  | < 25 | > 75 |
| COc1ccc(C[C@H]2CC[C@H]([C@@H](O)c3cccc(F)c3)N2)cc1 [Example 16, (S)-(3-Fluorophenyl)((2R,5R)-5-(4-methoxybenzyl)pyrrolidin-2-yl)methanol] |  |  | < 25 | 50 to 75 |
| CO[C@H]1CC[C@H](C[C@@]2(C)CC[C@H]([C@H](O)c3cccc(F)c3)N2)CC1 [Example 17, (R)-(3-Fluorophenyl)((2R,5R)-5-(((1r,4R)-4-methoxycyclohexyl)methyl)-5-methylpyrrolidin-2-yl)methanol] |  |  | 25 to 50 | > 75 |
| CO[C@H]1CC[C@H](C[C@@]2(C)CC[C@H]([C@@H](O)c3cccc(F)c3)N2)CC1 [Example 18, (S)-(3-Fluorophenyl)(2R,5R)-5-(((1r,4R)-4-methoxycyclohexyl)methyl)-5-methylpyrrolidin-2-yl)methanol hydrochloride] |  |  | < 25 | 50 to 75 |
| COc1ccc(C[C@@]2(C)CC[C@H]([C@H](O)c3cccc(F)c3)N2)cc1 [Example 19, (R)-(3-Fluorophenyl)((2R,5R)-5-(4-methoxybenzyl)-5-methylpyrrolidin-2-yl)methanol hydrochloride] |  |  | 25 to 50 | > 75 |
| COc1ccc(C[C@@]2(C)CC[C@H]([C@@H](O)c3cccc(F)c3)N2)cc1 [Example 20, (S)-(3-Fluorophenyl)((2R,5R)-5-(4-methoxybenzyl)-5-methylpyrrolidin-2-yl)methanol hydrochloride] |  |  | < 25 | > 75 |
| COc1ccc(C[C@@H]2CC[C@H]([C@H](O)c3cncc(F)c3)N2)cc1 [Example 21, (R)-(5-Fluoropyridin-3-yl)((2R,5S)-5-(4-methoxybenzyl)pyrrolidin-2-yl) -methanol dihydrochloride] |  |  | < 25 | > 75 |
| COc1ccc(C[C@@H]2CC[C@H]([C@@H](O)c3cncc(F)c3)N2)cc1 [Example 22, (S)-(5-Fluoropyridin-3-yl)((2R,5S)-5-(4-methoxybenzyl)pyrrolidin-2-yl)methanol dihydrochloride] |  |  | < 25 | > 75 |
| COc1ccc(C[C@H]2CC[C@H]([C@H](O)c3cncc(F)c3)N2)cc1 [Example 23, (R)-(5-Fluoropyridin-3-yl)(2R,5R)-5-(4-methoxybenzyl)pyrrolidin-2-yl)methanol dihydrochloride] |  |  | < 25 | > 75 |
| COc1ccc(C[C@H]2CC[C@H]([C@@H](O)c3cncc(F)c3)N2)cc1 [Example 24, (S)-(5-Fluoropyridin-3-yl)((2R,5R)-5-(4-methoxybenzyl)pyrrolidin-2-yl)methanol dihydrochloride] |  |  | < 25 | > 75 |
| O[C@H](c1cccc(F)c1)[C@H]1CC[C@@H](Cc2ccc(Cl)cc2)N1 [Example 25, (R)-((2R,5S)-5-(4-Chlorobenzyl)pyrrolidin-2-yl)(3-fluorophenyl)methanol hydrochloride] |  |  | < 25 | > 75 |
| O[C@@H](c1cccc(F)c1)[C@H]1CC[C@@H](Cc2ccc(Cl)cc2)N1 [Example 26, (S)-((2R,5S)-5-(4-Chlorobenzyl)pyrrolidin-2-yl)(3-fluorophenyl)methanol hydrochloride] |  |  | < 25 | 50 to 75 |
| O[C@H](c1cccc(F)c1)[C@H]1CC[C@H](Cc2ccc(Cl)cc2)N1 [Example 27, (R)-((2R,5R)-5-(4-Chlorobenzyl)pyrrolidin-2-yl)(3-fluorophenyl)methanol hydrochloride] |  |  | < 25 | > 75 |
| O[C@@H](c1cccc(F)c1)[C@H]1CC[C@H](Cc2ccc(Cl)cc2)N1 [Example 28, (S)-((2R,5R)-5-(4-Chlorobenzyl)pyrrolidin-2-yl)(3-fluorophenyl)methanol hydrochloride] |  |  | < 25 | 50 to 75 |
| O[C@H](c1cncc(F)c1)[C@H]1CC[C@@H](Cc2ccc(Cl)cc2)N1 [Example 29, (R)-((2R,5S)-5-(4-Chlorobenzyl)pyrrolidin-2-yl)(5-fluoropyridin-3-yl) -methanol dihydrochloride] |  |  | < 25 | > 75 |
| O[C@@H](c1cncc(F)c1)[C@H]1CC[C@@H](Cc2ccc(Cl)cc2)N1 [Example 30, (S)-(2R,5S)-5-(4-Chlorobenzyl)pyrrolidin-2-yl)(5-fluoropyridin-3-yl) -methanol dihydrochloride] |  |  | < 25 | 50 to 75 |
| O[C@H](c1cncc(F)c1)[C@H]1CC[C@H](Cc2ccc(Cl)cc2)N1 [Example 31, (R)-((2R,5R)-5-(4-Chlorobenzyl)pyrrolidin-2-yl)(5-fluoropyridin-3-yl) -methanol dihydrochloride] |  |  | < 25 | > 75 |
